Results reported in patent US20070208087A1, “Compounds, compositions and methods for the treatment of inflammatory diseases” (priority 2001, published 2007).
Values joined by “and” are separate entries in the source; they are usually repeats but may differ in a detail not shown here. Equal entries are not always repeated.

What was measured:
Assay type in all cases: cell-based
[1] = system: EOC 13.31 microglia cells; experiment: NO release inhibition in LPS/IFNγ stimulated microglia, concurrent treatment, Griess reaction at 24 hours (Example 6); conditions: 24 hours; for NO release, Avg: 50 μM; for inhibition at 50 µM: Microglia
Method in brief: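 Confluent EOC 13.31 microglia were given 50 μM compound together with 1 pg/ml LPS plus 1 ng/ml IFNγ, or without stimulation. NO release was quantified spectrophotometrically by Griess reaction 24 hours later.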

[2] = system: EOC 13.31 microglia cells; experiment: Inhibition of NO release from microglia following 24 hours pretreatment (Example 10); conditions: for inhibition at 50 µM: Microglia
Method in brief: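 Confluent EOC 13.31 cells pretreated 24 hours with 50 μM compound (from 10 mM DMSO stock), then stimulated with 10 μg/ml LPS plus 10 ng/ml IFNγ without media change. After a further 48 hours, NO release was measured by Griess Reaction.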

[3] = system: TNF-α release from microglia; experiment: TNF-α release from LPS/IFNγ stimulated microglia, TNF-α ELISA (Example 11); conditions: 50 uM compound, TNF-α release, 10 ug LPS and 10 ng IFNγ, 24 hours
Method in brief: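 Microglia pretreated 1 h with 50 μM bis-/tris-dihydroxyaryl compound, then stimulated with 10 μg/ml LPS + 10 ng/ml IFNγ for 24 h. Medium sampled, stored at −80°, diluted 1:50 and TNF-α measured by ELISA.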

[4] = system: microglia; experiment: Ranking of NO release inhibition (Example 12); conditions: Microglia, ranking table
Text: The bis- and tris-dihydroxyaryl compounds were ranked in order of effectiveness for the inhibition of NO release as set out in Table 8.

Compound: O=C(NCc1ccc(O)c(O)c1)c1ccc(O)c(O)c1 [Compound 52, 3,4-dihydroxybenzoic acid 3,4-dihydroxybenzylamide]
- NO release, Avg ([1]; Compound + LPS/IFNγ): 16.2840 µM
- NO release, Avg ([1]; Compound Only (without LPS/IFNγ)): -0.0417 µM
- inhibition at 50 µM ([1]; Compound + LPS/IFNγ, read-out: % inhibition of NO release): 12.6%
- inhibition at 50 µM ([1]; Table 2 summary, LPS/IFNγ, read-out: % Inhibition (summary of inhibition of NO release)): 12.6%
- % inhibition ([2]; 50 uM pretreatment 24 hours, then LPS/IFNγ 48 hours, single replicates): 80.39% and 81.34%
- inhibition at 50 µM ([2]; 50 uM pretreatment 24 hours, then LPS/IFNγ 48 hours, read-out: Avg % Inhibition): 80%
- inhibition at 50 µM ([2]; 50 uM pretreatment 24 hours, then LPS/IFNγ 48 hours, single replicates, read-out: % inhibition): 78.2%
- inhibition at 50 µM ([2]; 50 μM pretreatment, read-out: inhibition of NO release following pretreatment): > 75%
- % inhibition ([3]; individual replicates, 50 µM): −12.27% and −26.58% and −30.69%
- inhibition at 50 µM ([3]; Microglia, 24 h, read-out: Avg % Inhibition): -23.2%
- inhibition at 50 µM [4]: 13%
